This test has as its target Factor D (Homo sapiens (Human), UniProt P00746). Put plainly: Factor D esterolytic assay (Z-Lys-SBzl substrate, DTNB, 405 nm). The settings on record: Z-Lys-SBzl 1.29 mM, pH 7.5, 10% DMSO, tested a minimum of three times, read-out: Measured Ki (IC50) Value for Compounds: IC50. The test is classed as biochemical. An outline of the steps: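 Thioester hydrolysis (Z-Lys-SBzl, 1.29 mM) by human Factor D ([…]) detected through DTNB color at 405 nm over 600 sec, minus 690 nm background. Buffer: 100 mM HEPES pH 7.5, 500 mM NaCl, 10% DMSO; optional room-temperature preincubation before substrate. IC50 derived from percent rate inhibition; at least three runs.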

Sequence of Factor D (P00746 26-253): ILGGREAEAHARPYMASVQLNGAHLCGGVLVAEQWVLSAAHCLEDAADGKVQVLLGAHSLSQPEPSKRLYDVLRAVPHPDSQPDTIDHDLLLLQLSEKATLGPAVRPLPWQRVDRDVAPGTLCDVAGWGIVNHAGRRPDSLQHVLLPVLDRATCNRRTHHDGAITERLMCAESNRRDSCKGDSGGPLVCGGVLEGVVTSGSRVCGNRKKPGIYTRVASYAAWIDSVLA

With `COc1ccc(C(SC)C(=O)O)c(OCc2cc(-c3cccc(CN)c3)c3occc3c2)c1` (centres unmarked) [Compound 321f, 2-(2-((7-(3-(aminomethyl)phenyl)benzofuran-5-yl)methoxy)-4-methoxyphenyl)-2-(methylthio)acetic acid], the IC50 is below 1000 nM. The value for `NCc1cccc(-c2cc(COc3ccccc3CC(=O)O)cc3cc(CO)oc23)c1` [Compound 76f, 2-(2-((7-(3-(aminomethyl)phenyl)-2-(hydroxymethyl)benzofuran-5-yl)methoxy)phenyl)acetic acid] was below 1000 nM. Then `C[C@@H](N)c1cccc(-c2nc(C(=O)Nc3ccccc3CC(=O)O)c3cccn3n2)c1F` [Compound 33f, (R)-2-(2-(2-(3-(1-aminoethyl)-2-fluorophenyl)pyrrolo[2,1-f][1,2,4]triazine-4-carboxamido)phenyl)acetic acid], with below 1000 nM; and `NCc1cccc(-c2cc(COc3ccccc3CC(=O)O)cc3nc[nH]c23)c1` [Compound 167e, 2-(2-((7-(3-(aminomethyl)phenyl)-1H-benzo[d]imidazol-5-yl)methoxy)phenyl)acetic acid], with below 1000 nM. In the case of `N#Cc1ccc(OCc2cc(-c3cccc(CN)c3)c3occc3c2)c(CC(=O)O)c1` [Compound 239c, 2-(2-((7-(3-(aminomethyl)phenyl)benzofuran-5-yl)methoxy)-5-cyanophenyl)acetic acid], the 50% inhibitory concentration (IC50) is below 1000 nM. The value for `NCc1nccc(-c2cc(COc3cc(F)ccc3CC(=O)O)cc3ccoc23)c1F` [Compound 364d, 2-(2-((7-(2-(aminomethyl)-3-fluoropyridin-4-yl)benzofuran-5-yl)methoxy)-4-fluorophenyl)acetic acid] was below 1000 nM; that for `N#Cc1ccc(CC(=O)O)c(OCc2cc(-c3cccc(CN)c3)c3oc(CO)cc3c2)c1` [Compound 422e, 2-(2-((7-(3-(aminomethyl)phenyl)-2-(hydroxymethyl)benzofuran-5-yl)methoxy)-4-cyanophenyl)acetic acid] was below 1000 nM. Then `Cc1ccc(CC(=O)O)c(OCc2cc(-c3cccc(CN)c3F)c3ccn(C(C)C)c3c2)c1` [Compound 353b, 2-(2-((4-(3-(aminomethyl)-2-fluorophenyl)-1-isopropyl-1H-indol-6-yl)methoxy)-4-methylphenyl)acetic acid], with below 1000 nM; and `NCc1cc(F)cc(-c2cc(COc3ccccc3CC(=O)O)cc3ccoc23)c1` [Compound 73c, 2-(2-((7-(3-(aminomethyl)-5-fluorophenyl)benzofuran-5-yl)methoxy)phenyl)acetic acid], with below 1000 nM; and `NCc1cccc(-c2cc(COc3ccccc3C(NC(=O)[C@@H]3C[C@H]3c3ccccc3)C(=O)O)cc3ccoc23)c1` (stereo partly drawn) [Compound 234f, 2-(2-((7-(3-(aminomethyl)phenyl)benzofuran-5-yl)methoxy)phenyl)-2-((1R,2R)-2-phenylcyclopropanecarboxamido)acetic acid], with below 1000 nM. As to `NCc1cccc(-c2cc(COc3ccccc3CC(=O)O)cc3cc(CNCc4ccccc4)oc23)c1` [Compound 283c, 2-(2-((7-(3-(aminomethyl)phenyl)-2-((benzylamino)methyl)benzofuran-5-yl)methoxy)phenyl)acetic acid], the IC50 was below 1000 nM. Turning to `NCc1cccc(-c2cc(COc3cc4ccccc4cc3CC(=O)O)cc3ccoc23)c1` [Compound 401e, 2-(3-((7-(3-(aminomethyl)phenyl)benzofuran-5-yl)methoxy)naphthalen-2-yl)acetic acid], the half-maximal inhibitory concentration (IC50) was below 1000 nM.

`NCc1cccc(-c2nc(COc3ccccc3CC(=O)O)nc3c2ccn3CC2CC2)c1` [Compound 26d, 2-(2-((4-(3-(aminomethyl)phenyl)-7-(cyclopropylmethyl)-7H-pyrrolo[2,3-d]pyrimidin-2-yl)methoxy)phenyl)acetic acid]: the 50% inhibitory concentration (IC50) was below 1000 nM. `NCc1cccc(-c2cc(COc3ccccc3CC(=O)O)cc3cc(CCO)oc23)c1F` [Compound 179b, 2-(2-((7-(3-(aminomethyl)-2-fluorophenyl)-2-(2-hydroxyethyl)benzofuran-5-yl)methoxy)phenyl)acetic acid]: the IC50 was below 1000 nM. Then `NC(=O)c1ccc(CC(=O)O)c(OCc2cc(-c3cccc(C(N)CF)c3)c3occc3c2)c1` (single isomer, unassigned; (+)) [Compound 436c, (+)-2-(2-((7-(3-(1-amino-2-fluoroethyl)phenyl)benzofuran-5-yl)methoxy)-4-carbamoylphenyl)acetic acid], with below 1000 nM; and `NCCc1cccc(-c2cc(COc3ccccc3CC(=O)O)cc3ccoc23)c1` [Compound 95c, 2-(2-((7-(3-(2-aminoethyl)phenyl)benzofuran-5-yl)methoxy)phenyl)acetic acid], with below 1000 nM.

With `NCc1coc2c(-c3cc(COc4ccccc4CC(=O)O)cc4ccoc34)cccc12` [Compound 38f, 2-(2-((3′-(aminomethyl)-[7,7′-bibenzofuran]-5-yl)methoxy)phenyl)acetic acid], the half-maximal inhibitory concentration (IC50) is below 1000 nM.

For `NCc1cccc(-c2cc(COc3ccccc3CC(=O)O)cc3sc(Cl)cc23)c1` [Compound 215h, 2-(2-((4-(3-(aminomethyl)phenyl)-2-chlorobenzo[b]thiophen-6-yl)methoxy)phenyl)acetic acid], the IC50 is below 1000 nM. Then `NCc1cccc(-c2cc(COc3ccccc3CC(=O)O)cc3ccoc23)c1` [Compound 23e, 2-(2-((7-(3-(aminomethyl)phenyl)benzofuran-5-yl)methoxy)phenyl)acetic acid], with below 1000 nM; and `NCc1cccc(-c2cc(COc3ccc(O)cc3CC(=O)O)cc3ccoc23)c1` [Compound 249f, 2-(2-((7-(3-(aminomethyl)phenyl)benzofuran-5-yl)methoxy)-5-hydroxyphenyl)acetic acid], with below 1000 nM.

With `C[C@@H](N)c1cccc(-c2cc(COc3ccccc3CC(=O)O)cc3ccoc23)c1F` [Compound 65c, (R)-2-(2-((7-(3-(1-aminoethyl)-2-fluorophenyl)benzofuran-5-yl)methoxy)phenyl)acetic acid], the IC50 was below 1000 nM.

Take `Cn1ccc2cc(COc3ccccc3CC(=O)O)cc(-c3cccc(CN)c3)c21` [Compound 218f, 2-(2-((7-(3-(aminomethyl)phenyl)-1-methyl-1H-indol-5-yl)methoxy)phenyl)acetic acid]: the IC50 was above 10000 nM. The value for `Cc1ccc(CC(=O)O)c(OCc2cc(-c3ccnc(CN)c3)c3occc3c2)c1` [Compound 271e, 2-(2-((7-(2-(aminomethyl)pyridin-4-yl)benzofuran-5-yl)methoxy)-4-methylphenyl)acetic acid] was below 1000 nM. The value for `N[C@H](CO)c1cccc(-c2cc(COc3ccccc3CC(=O)O)cc3ccoc23)c1F` [Compound 67c, (S)-2-(2-((7-(3-(1-amino-2-hydroxyethyl)-2-fluorophenyl)benzofuran-5-yl)methoxy)phenyl)acetic acid] was below 1000 nM; that for `Cc1noc2c(-c3ccnc(CN)c3)cc(COc3ccccc3CC(=O)O)cc12` [Compound 268h, 2-(2-((7-(2-(aminomethyl)pyridin-4-yl)-3-methylbenzo[d]isoxazol-5-yl)methoxy)phenyl)acetic acid] was below 1000 nM; that for `NCc1cccc(-c2nc(C(=O)Nc3ccsc3CC(=O)O)c3cccn3n2)c1F` [Compound 144d, 2-(3-(2-(3-(aminomethyl)-2-fluorophenyl)pyrrolo[2,1-f][1,2,4]triazine-4-carboxamido)thiophen-2-yl)acetic acid] was below 1000 nM. Then `NCc1cccc(-c2cc(NC(=O)[C@@H]3CCCN3CC(=O)O)cc3ccoc23)c1` [Compound 250f, (S)-2-(2-((7-(3-(aminomethyl)phenyl)benzofuran-5-yl)carbamoyl)pyrrolidin-1-yl)acetic acid], with 1000 to 10000 nM; and `CC(C)Cc1cc2cc(COc3ccccc3CC(=O)O)cc(-c3cccc(CN)c3)c2o1` [Compound 201b, 2-(2-((7-(3-(aminomethyl)phenyl)-2-isobutylbenzofuran-5-yl)methoxy)phenyl)acetic acid], with below 1000 nM. `CC(=O)c1ccc(CC(=O)O)c(OCc2cc(-c3cccc(CN)c3F)c3occc3c2)c1` [Compound 479d, 2-(4-acetyl-2-((7-(3-(aminomethyl)-2-fluorophenyl)benzofuran-5-yl)methoxy)phenyl)acetic acid]: the IC50 is below 1000 nM.

For `CCCc1cc2cc(COc3ccccc3CC(=O)O)cc(-c3cccc(CN)c3F)c2o1` [Compound 188b, 2-(2-((7-(3-(aminomethyl)-2-fluorophenyl)-2-propylbenzofuran-5-yl)methoxy)phenyl)acetic acid], the concentration for half-maximal inhibition (IC50) is below 1000 nM. Regarding `NCc1nccc(-c2cc(COc3cc(F)ccc3CC(=O)O)cc3cc(F)oc23)c1F` [Compound 522c, 2-(2-((7-(2-(aminomethyl)-3-fluoropyridin-4-yl)-2-fluorobenzofuran-5-yl)methoxy)-4-fluorophenyl)acetic acid], the half-maximal inhibitory concentration (IC50) is below 1000 nM. With `NCc1cccc(-c2cc(COc3cc(-c4ccccc4)ccc3CC(=O)O)cc3ccoc23)c1F` [Compound 391f, 2-(3-((7-(3-(aminomethyl)-2-fluorophenyl)benzofuran-5-yl)methoxy)-[1,1′-biphenyl]-4-yl)acetic acid], the IC50 was below 1000 nM. Then `NCc1cccc(-c2cc(C(=O)Nc3ccccc3CC(=O)O)c3nccn3c2)c1` [Compound 6e, 2-(2-(6-(3-(aminomethyl)phenyl)imidazo[1,2-a]pyridine-8-carboxamido)phenyl)acetic acid], with 1000 to 10000 nM; and `Cc1ccc(CC(=O)O)c(OCc2cc(-c3cccc(CN)c3)c3occc3c2)c1C` [Compound 292f, 2-(2-((7-(3-(aminomethyl)phenyl)benzofuran-5-yl)methoxy)-3,4-dimethylphenyl)acetic acid], with below 1000 nM; and `NCc1cccc(-c2cc(COc3ccc(N)cc3CC(=O)O)cc3ccoc23)c1` [Compound 209c, 2-(5-amino-2-((7-(3-(aminomethyl)phenyl)benzofuran-5-yl)methoxy)phenyl)acetic acid], with below 1000 nM.
